Here are results for seven molecules from PMC5929560, “Deciphering the binding behavior of flavonoids to the cyclin dependent kinase 6/cyclin D complex” (PLoS ONE, 2018).

In test [1] the target is CDK6 (Homo sapiens, UniProt Q00534). Kind of test: Filter-binding kinase assay with [γ-32P]ATP and histone H1. The class given is biochemical. The note with it: 25 μM ATP, 20 min at 30°C, triplicate. The protocol: To quantify the inhibitory activities of flavonoids on CDK6, the filter-binding assay was performed in 96-well filter plates. The total volume for each well was 0.1mL containing a final concentration of 20mM Tris-HCl (pH 7.4), 50mM NaCl, 1mM dithiothreitol, 10mM MgCl2, 25μM ATP (containing 0.25μCi of [γ-^32P]ATP), 0.1μg of CDK6, 10μg of histone H1, and appropriate dilutions of inhibitor. The reaction was initiated by the addition of [γ-^32P]ATP, and then incubated for 20min at 30°C. Samples were applied to P81 phosphocellulose papers strips (Whatman), and the strips were washed in phosphoric acid solution. The radioactivity was measured by liquid scintillation spectrometry. IC50 values were calculated from the dose-response curves. All experiments were carried out in triplicate.
Chain of CDK6 (Homo sapiens, UniProt Q00534) (Q00534 whole entry): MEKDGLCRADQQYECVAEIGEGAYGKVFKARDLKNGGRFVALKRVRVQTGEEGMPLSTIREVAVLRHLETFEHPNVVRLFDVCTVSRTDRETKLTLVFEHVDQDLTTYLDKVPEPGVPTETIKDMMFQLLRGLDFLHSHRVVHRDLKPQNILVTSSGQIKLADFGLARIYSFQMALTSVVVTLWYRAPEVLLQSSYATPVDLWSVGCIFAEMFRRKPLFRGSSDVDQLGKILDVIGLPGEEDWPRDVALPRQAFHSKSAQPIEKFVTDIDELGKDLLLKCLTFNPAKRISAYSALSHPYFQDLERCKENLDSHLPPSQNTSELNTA
Chain of CDK6 (Homo sapiens, UniProt Q00534) (P30281 whole entry partner): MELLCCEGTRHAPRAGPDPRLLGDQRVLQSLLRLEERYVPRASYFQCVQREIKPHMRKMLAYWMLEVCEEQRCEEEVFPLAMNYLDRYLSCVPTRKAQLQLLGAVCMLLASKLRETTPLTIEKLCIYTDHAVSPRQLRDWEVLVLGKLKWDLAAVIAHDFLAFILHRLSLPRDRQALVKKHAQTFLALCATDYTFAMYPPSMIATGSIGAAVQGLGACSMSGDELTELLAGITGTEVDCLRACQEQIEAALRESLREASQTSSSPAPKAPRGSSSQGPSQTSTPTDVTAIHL

Test [2] deals with CDK6. The note with it: cited from earlier work.

What is called IC50 is the concentration needed to halve the response being measured. Turning to `O=c1cc(-c2ccccc2)oc2cc(O)cc(O)c12` [M01, Chrysin], in test [1], the IC50 worked out at 4.5 ± 0.4 µM. Turning to `O=c1c(O)c(-c2ccc(O)c(O)c2)oc2cc(O)ccc12` [M03, Fisetin], the IC50 in test [2] is 0.85 µM. `O=c1c(O)c(-c2ccccc2)oc2cc(O)cc(O)c12` [M04, Galangin]: the IC50 in test [1] turned out to be 52 ± 2.8 µM.

As to `O=c1c(-c2ccc(O)cc2)coc2cc(O)cc(O)c12` [M05, Genistein], the half-inhibitory concentration (IC50) in test [1] was found to be 38 ± 2.1 µM. With `O=c1c(O)c(-c2ccc(O)c(O)c2)oc2cc(O)cc(O)c12` [M06, Quercetin], the IC50 in test [2] is 26 µM; in test [1] it was 26.3 ± 1.9 µM. Consider `O=c1c(O)c(-c2ccc(O)cc2)oc2cc(O)cc(O)c12` [M07, Kaempferol], for which the IC50 in test [1] amounted to 19.8 ± 1.6 µM. The same measure, in the same setting: the same measure for `O=c1cc(-c2ccc(O)c(O)c2)oc2cc(O)ccc12` [M15, 3’, 4’, 7-trihydroxyflavone]: 23.3 ± 1.5 µM.
